Values after ≈ are worked out from the molar mass of the structure shown.
Tests used:
[1] = molecular target: T1, Nuclear receptor ROR-gamma (Homo sapiens) (UniProt P51449); assay: Inverse agonist activity at human RORc-LBD assessed as inhibition of SRC1 co-activator peptide recruitment by FRET assay relative to apo-RORc basal activity
T1 sequence (whole entry): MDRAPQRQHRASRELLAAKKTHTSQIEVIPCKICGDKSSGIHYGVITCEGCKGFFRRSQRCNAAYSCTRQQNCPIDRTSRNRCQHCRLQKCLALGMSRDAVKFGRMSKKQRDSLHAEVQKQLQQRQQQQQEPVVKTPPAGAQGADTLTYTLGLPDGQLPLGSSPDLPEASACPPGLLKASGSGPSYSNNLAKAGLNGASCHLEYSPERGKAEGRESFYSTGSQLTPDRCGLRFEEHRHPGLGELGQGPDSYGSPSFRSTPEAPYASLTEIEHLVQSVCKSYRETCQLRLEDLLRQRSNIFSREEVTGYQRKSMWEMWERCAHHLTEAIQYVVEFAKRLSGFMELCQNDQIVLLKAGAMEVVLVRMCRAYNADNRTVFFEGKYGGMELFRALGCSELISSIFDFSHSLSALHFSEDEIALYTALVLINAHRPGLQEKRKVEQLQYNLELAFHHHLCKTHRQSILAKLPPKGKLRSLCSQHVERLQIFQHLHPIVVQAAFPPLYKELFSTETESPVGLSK

[2] = molecular target: T2, Nuclear receptor ROR-gamma (Homo sapiens, UniProt P51449); assay: Inverse agonist activity at human RORc-LBD assessed as inhibition of SRC1 co-activator peptide recruitment by FRET assay
T2 sequence (P51449 whole entry): T1 sequence (whole entry)

[3] = Protein binding in rat plasma by equilibrium dialysis; type: ADME, cell-free; settings: read-out: PPB (converted)
[4] = Protein binding in mouse plasma by equilibrium dialysis; type: ADME, cell-free; settings: read-out: PPB (converted)
[5] = Aqueous kinetic solubility of the compound in pH 7.4 by high-throughput assay; type: physicochemical
[6] = test system: PBMC; assay: Cytotoxicity against human PBMC assessed as cell viability measured after 48 hrs by CellTiter-Glo assay; type: cell-based
[7] = Protein binding in human plasma by equilibrium dialysis; type: ADME, cell-free; settings: read-out: PPB (converted)
[8] = molecular target: T3, Nuclear receptor ROR-beta (Homo sapiens, UniProt Q92753); assay: Inverse agonist activity at GAL4-fused human RORb expressed in HEK293 cells assessed as […] of basal transcriptional activity by dual-glo luciferase reporter gene assay; type: cell-based
T3 sequence (Q92753 whole entry): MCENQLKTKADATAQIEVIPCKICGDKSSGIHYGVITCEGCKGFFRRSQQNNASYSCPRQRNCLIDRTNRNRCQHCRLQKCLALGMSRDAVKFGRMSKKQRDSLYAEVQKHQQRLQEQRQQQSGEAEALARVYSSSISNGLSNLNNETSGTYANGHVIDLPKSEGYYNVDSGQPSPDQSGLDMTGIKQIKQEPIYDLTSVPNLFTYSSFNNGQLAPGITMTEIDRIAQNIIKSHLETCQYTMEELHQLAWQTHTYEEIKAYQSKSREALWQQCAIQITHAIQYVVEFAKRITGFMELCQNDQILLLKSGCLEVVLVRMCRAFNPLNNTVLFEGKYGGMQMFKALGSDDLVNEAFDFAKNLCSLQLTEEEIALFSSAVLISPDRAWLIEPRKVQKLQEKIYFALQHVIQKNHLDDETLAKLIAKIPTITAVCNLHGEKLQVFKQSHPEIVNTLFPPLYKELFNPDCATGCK

[9] = molecular target: T2, Nuclear receptor ROR-gamma; assay: Inverse agonist activity at GAL4-fused human RORc expressed in HEK293 cells assessed as […] of basal transcriptional activity by dual-glo luciferase reporter gene assay; type: cell-based
[10] = Apparent permeability from basolateral to apical side in MDCK cells; type: ADME, cell-based, Canis lupus familiaris; settings: dog
[11] = test system: PBMC; assay: Inhibition of IL-17AA production in anti-CD3 and anti-CD28 stimulated human PBMC measured […] by Sandwich ELISA relative to control; type: functional
[12] = molecular target: T4, Nuclear receptor ROR-alpha (Homo sapiens, UniProt P35398); assay: Inverse agonist activity at GAL4-fused human RORa expressed in HEK293 cells assessed as […] of basal transcriptional activity by dual-glo luciferase reporter gene assay; type: cell-based
T4 sequence (P35398 whole entry): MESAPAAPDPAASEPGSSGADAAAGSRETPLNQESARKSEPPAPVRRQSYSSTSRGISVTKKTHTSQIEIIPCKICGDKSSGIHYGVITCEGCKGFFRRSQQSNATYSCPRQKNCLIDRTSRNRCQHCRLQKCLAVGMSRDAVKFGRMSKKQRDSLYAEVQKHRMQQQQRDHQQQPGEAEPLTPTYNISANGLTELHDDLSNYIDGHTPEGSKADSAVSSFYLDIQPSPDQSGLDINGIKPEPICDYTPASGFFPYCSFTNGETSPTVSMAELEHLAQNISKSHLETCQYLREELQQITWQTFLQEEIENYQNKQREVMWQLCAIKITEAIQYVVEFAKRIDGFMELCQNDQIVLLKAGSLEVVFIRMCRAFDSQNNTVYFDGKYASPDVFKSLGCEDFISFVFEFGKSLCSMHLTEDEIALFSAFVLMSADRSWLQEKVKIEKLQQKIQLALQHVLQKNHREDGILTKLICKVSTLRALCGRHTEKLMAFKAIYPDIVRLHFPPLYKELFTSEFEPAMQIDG

[13] = Apparent permeability from apical to basolateral side in MDCK cells; type: ADME, cell-based, Canis lupus familiaris; settings: dog
[14] = Clearance in rat liver microsomes relative to liver blood flow; type: ADME, Microsome; settings: read-out: CLH
[15] = Clearance in human liver microsomes relative to liver blood flow; type: ADME, Microsome; settings: read-out: CLH
[16] = test system: PBMC; assay: Inhibition of IFN-gamma production in anti-CD3 and anti-CD28 stimulated human PBMC measured […] by Sandwich ELISA; type: functional, cell-based
[17] = test system: PBMC; assay: Inhibition of IL-17AA production in anti-CD3 and anti-CD28 stimulated human PBMC measured […] by Sandwich ELISA; type: functional, cell-based
[18] = Efflux ratio of apparent permeability from basolateral to apical over apical to basolateral side in MDCK cells; type: ADME, cell-based, Canis lupus familiaris; settings: dog

CC(=O)N1CCN(c2ccc(CN3[C@@H](C)CC[C@H](c4ccc(Cl)cc4)S3(=O)=O)c(F)c2)CC1
Efficacy [1]: 99%
EC50 [2]: 0.034 µM

CC(=O)N1CCN(c2ccc(CN3C[C@H](C)OC[C@H](c4ccccc4)S3(=O)=O)c(F)c2)CC1
fraction unbound [3]: 0.07
Efficacy [1]: 100%
fraction unbound [4]: 0.06
solubility kinetic [5]: 38 µM (≈ 18.1 µg/mL)
EC50 [6]: > 20 µM
fraction unbound [7]: 0.11
EC50 [8]: > 10 µM
EC50 [9]: 0.022 µM
Papp B→A [10]: 15 ×10⁻⁶ cm/s
EC50 [2]: 0.003 µM
Imax [11]: 67%
EC50 [12]: > 10 µM
Papp A→B [13]: 16 ×10⁻⁶ cm/s
hepatic extraction ratio [14]: > 0.7
hepatic extraction ratio [15]: > 0.7
EC50 [16]: > 20 µM
EC50 [17]: 0.45 µM
efflux ratio [18]: 1

CC(=O)N1CCN(c2ccc(CN3C[C@@H](C)OC[C@H](c4ccccc4)S3(=O)=O)c(F)c2)CC1
Efficacy [1]: 100%
EC50 [2]: 0.021 µM

CC(=O)N1CCN(c2ccc(CN3[C@@H](C)CC[C@H](c4ccsc4)S3(=O)=O)c(F)c2)CC1
Efficacy [1]: 98%
EC50 [2]: 0.013 µM

CC(=O)N1CCN(c2ccc(CN3[C@@H](C)CC[C@H](c4cccs4)S3(=O)=O)c(F)c2)CC1
Efficacy [1]: 91%
EC50 [2]: 0.002 µM

CC(=O)N1CCN(c2ccc(CN3[C@@H](C)CC[C@H](c4cccc(Cl)c4)S3(=O)=O)c(F)c2)CC1
Efficacy [1]: 99%
EC50 [2]: 0.007 µM

CC(=O)N1CCN(c2ccc(CN3[C@@H](C)CC[C@H](c4ncccn4)S3(=O)=O)c(F)c2)CC1
Efficacy [1]: 76%
EC50 [2]: 0.41 µM

CC(=O)N1CCN(c2ccc(CN3[C@@H](C)CC[C@H](c4ccncc4)S3(=O)=O)c(F)c2)CC1
Efficacy [1]: 89%
EC50 [2]: 0.41 µM

CC(=O)N1CCN(c2ccc(CN3[C@@H](C)CC[C@H](c4ccc(C#N)cc4)S3(=O)=O)c(F)c2)CC1
Efficacy [1]: 62%
EC50 [2]: 3.9 µM

CC(=O)N1CCN(c2ccc(CN3CCCC[C@H](c4ccccc4)S3(=O)=O)c(F)c2)CC1
Efficacy [1]: 99%
EC50 [6]: > 20 µM
EC50 [8]: 6.8 µM
EC50 [9]: 0.025 µM
EC50 [2]: 0.006 µM
Imax [11]: 80%
EC50 [12]: 6.8 µM
EC50 [16]: > 20 µM
EC50 [17]: 0.43 µM

CC(=O)N1CCN(c2ccc(CN3[C@@H](C)CC[C@H](c4ccccc4)S3(=O)=O)c(F)c2)CC1
fraction unbound [3]: 0.05
fraction unbound [4]: 0.04
solubility kinetic [5]: 20 µM (≈ 9.19 µg/mL)
EC50 [6]: > 20 µM
fraction unbound [7]: 0.05
EC50 [8]: 5.4 µM
EC50 [9]: 0.047 µM
Papp B→A [10]: 32 ×10⁻⁶ cm/s
Imax [11]: 82%
EC50 [12]: 5.4 µM
Papp A→B [13]: 24 ×10⁻⁶ cm/s
EC50 [16]: > 20 µM
EC50 [17]: 0.45 µM

CC(=O)N1CCN(c2ccc(CN3CCOC[C@H](c4ccccc4)S3(=O)=O)c(F)c2)CC1
Efficacy [1]: 99%
EC50 [6]: > 20 µM
EC50 [2]: 0.031 µM
Imax [11]: 59%
EC50 [16]: > 20 µM
EC50 [17]: 1.2 µM

CC(=O)N1CCN(c2ccc(CN3[C@H](C)COC[C@H](c4ccccc4)S3(=O)=O)c(F)c2)CC1
Efficacy [1]: 98%
EC50 [2]: 0.073 µM

COc1cccc([C@H]2CC[C@H](C)N(Cc3ccc(N4CCN(C(C)=O)CC4)cc3F)S2(=O)=O)c1
Efficacy [1]: 97%
EC50 [2]: 0.058 µM

CC(=O)N1CCN(c2ccc(CN3[C@@H](C)CC[C@H](c4cccnc4)S3(=O)=O)c(F)c2)CC1
Efficacy [1]: 73%
EC50 [2]: 0.82 µM

CC(=O)N1CCN(c2ccc(CN3[C@@H](C)CC[C@H](c4ccccc4C#N)S3(=O)=O)c(F)c2)CC1
Efficacy [1]: 76%
EC50 [2]: 1.9 µM

CC(=O)N1CCN(c2ccc(CN3[C@@H](C)CC[C@H](c4ccccc4Cl)S3(=O)=O)c(F)c2)CC1
Efficacy [1]: 91%
EC50 [2]: 0.23 µM

CC(=O)N1CCN(c2ccc(CN3[C@@H](C)COC[C@H](c4ccccc4)S3(=O)=O)c(F)c2)CC1
Efficacy [1]: 100%
EC50 [6]: > 20 µM
EC50 [8]: > 10 µM
EC50 [9]: 0.064 µM
EC50 [2]: 0.008 µM
Imax [11]: 80%
EC50 [12]: > 10 µM
EC50 [16]: > 20 µM
EC50 [17]: 0.75 µM

CC(=O)N1CCN(c2ccc(CN3[C@@H](C)CC[C@H](c4cccc(C#N)c4)S3(=O)=O)c(F)c2)CC1
Efficacy [1]: 64%
EC50 [2]: 1.3 µM

COc1ccc([C@H]2CC[C@H](C)N(Cc3ccc(N4CCN(C(C)=O)CC4)cc3F)S2(=O)=O)cc1
Efficacy [1]: 96%
EC50 [2]: 0.028 µM

CC(=O)N1CCN(c2ccc(CN3[C@@H](C)CC[C@H](c4ccccn4)S3(=O)=O)c(F)c2)CC1
Efficacy [1]: 87%
EC50 [2]: 0.12 µM

COc1ccccc1[C@H]1CC[C@H](C)N(Cc2ccc(N3CCN(C(C)=O)CC3)cc2F)S1(=O)=O
Efficacy [1]: 94%
EC50 [2]: 0.094 µM

Reference: ChEMBL document CHEMBL4477267, “Discovery of oxa-sultams as RORc inverse agonists showing reduced lipophilicity, improved selectivity and favorable ADME properties” (Bioorg Med Chem Lett, 2016)
